Tests used:
Type in all cases: cell-based, human
MCF-7 cells = assay: MCF-7 cell growth inhibition test (SRB assay); conditions: 73 h
Experimental: MCF-7 Cell Growth Inhibition Test (SRB Assay)
(§1) II. Reagents and Consumable Materials
Culture medium: 90% EMEM+10% FBS; Pancreatin (0.25% (w/v) solution was formulated with PBS, 0.53 mM of EDTA was added in the formulation); PBS; 96-well culture plate.
(§2) 1. A plate (10 cm) of cells in logarithmic growth phase that were normally cultured was collected;
(§3) 2. The culture solution was sucked out. The plate was washed with 5 mL of PBS once or twice;
3. 1.5 mL of 0.25% pancreatin was added to the plate to infiltrate the cells;
4. The pancreatin was sucked out. The culture plate was placed in an incubator. Digestion was carried out for about 3 min at 37° C.;
5. 4 mL of complete culture solution was added to the culture plate to stop the digestion. The cells were carefully scoured with micropipette (1 mL) to give a uniform single cell suspension. The suspension was implanted into a 96-well cell culture plate by 10000 cells/100 μL per well. The culture plate was incubated overnight under 5% CO2 at 37° C. In day 2, 100 μL of culture solution comprising a compound was added in each well. The plate was further incubated for 73 h under 5% CO2 at 37° C.;
6. The culture solution was sucked out. 100 uL of TCA fixed cells which were diluted to 10% were added to each well. The plate was kept in a refrigerator for 1 h at 4° C.
7. TCA stationary liquid was sucked out. Each well was washed with 150 μL of ddH2O five times;
8. After the stationary liquid was cleansed, the plate was dried in the air at the room temperature;
9. 60 μL of SRB staining solution was added in each well. The well was stained for 15 min at the room temperature;
10. The SRB staining solution was sucked out. Each well was washed with 150 μL of 1% glacial acetic acid five times;
11. After the SRB staining solution was cleansed, the plate was dried in the air at the room temperature;
12. 100 μL of 10 mM Tris was added in each well. The plate was vibrated to dissolve out SRB;
13. OD values were determined at 570 nM.
(§4) IV. Results and Treatments
1. Calculation of Relative Inhibition Ratio The inhibition ratio of a compound on cell growth=(PC−n)/(PC−NC)×100% […]

MDA-MB-453 cells = assay: MDA-MB-453 cell growth inhibition test (SRB assay); conditions: growth inhibition at 2000 nM, 69.5 h
How it was run: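 MDA-MB-453 cells (7000/well) in L15 with 10% FBS were seeded overnight, then exposed to compound for 69.5 h at 37 °C and 5% CO2. After TCA fixation and SRB staining, dye was solubilised in Tris and OD read at 570 nm. Inhibition = (PC−n)/(PC−NC)×100%.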

SK-OV-3 cells = assay: SK-OV-3 cell growth inhibition test (MTT assay); conditions: growth inhibition at 667 nM, 69 h
How it was run: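 Human ovarian SK-OV-3 cells, 4000 per well in McCoy's 5A with 10% FBS, rested overnight, then grown 69 h with compound at 37 °C, 5% CO2. MTT (0.5 mg/mL, 3 h), DMSO solubilisation, OD at 490 nm; inhibition ratio computed against untreated and blank wells.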

A375 cells = assay: A375 cell growth inhibition test (MTT assay); conditions: 72 h
Experimental: A375 Cell Growth Inhibition Test (MTT Assay)
as §1
Culture medium: 90% DMEM+10% FBS (fetal calf serum); Pancreatin (0.25% (w/v) solution was formulated with PBS, 0.53 mM of EDTA was added in the formulation); PBS; 96-well culture plate.
as §2, §3
(§5) 3. PBS was sucked out. 1.5 mL of 0.25% pancreatin was added to the plate to infiltrate the cells for 1 min;
4. The culture plate was placed in an incubator. Digestion was carried out for about 5 min at 37° C.;
(§6) 5. 3 mL of complete culture solution was added to the culture plate to stop the digestion. The cells were carefully scoured with micropipette (1 ml) to give a uniform cell suspension. The suspension was implanted into a 96-well cell culture disc by 3000 cells/100 μL per well. The culture plate was incubated overnight under 5% CO2 at 37° C. In day 2, 100 μL of culture solution comprising a compound was added in each well. The plate was further incubated for 72 h under 5% CO2 at 37° C.;
(§7) 6. The culture solution was sucked out;
(§8) 7. 100 μL of serum-free culture solution containing 0.5 mg/mL MTT was added in each well. The plate was incubated for 3 h;
(§9) 8. The culture solution was carefully sucked out;
(§10) 9. 100 μL of DMSO was added in each well and vibrated to dissolve;
(§11) 10. OD values were determined at 490 nM.
as §4
(§12) 1. Calculation of Relative Inhibition Ratio The inhibition ratio of a compound on cell growth=(PC−n)/(PC−NC)×100%
(§13) PC: OD values of cells after normal growth in control wells without a compound;
(§14) n: OD values of cells after growth in test wells with a compound;
(§15) NC: Background OD values of blank wells without a compound and cells.

786-O cells = assay: 786-O cell growth inhibition test (MTT assay); conditions: 72 h
Experimental: 786-O Cell Growth Inhibition Test (MTT Assay)
as §1
Culture medium: 90% RPMI1640+10% FBS (fetal calf serum); Pancreatin (0.25% (w/v) solution was formulated with PBS, 0.53 mM of EDTA was added in the formulation); PBS; 96-well culture plate.
as §2, §3, §5
4. The culture plate was placed in an incubator. Digestion was carried out for about 1 min at 37° C.;
as §6, with “mL)” for “ml)”, “2000” for “3000”
as §7, §8, §9, §10, §11, §4, §12, §13, §14, §15

| SMILES | IC50 (MCF-7 cells) | Inhibition Ratio (%) (MDA-MB-453 cells) | Inhibition Ratio (%) (SK-OV-3 cells) | IC50 (A375 cells) | IC50 (786-O cells) |
| --- | --- | --- | --- | --- | --- |
| CC(=O)O.COc1cccc2c1C(=O)c1c(O)c3c(c(O)c1C2=O)CC(O)(C(=O)COC(=O)CCC(=O)NCCCN1CCN(C)CC1)CC3O[C@H]1C[C@H](n2cccc2)[C@H](O)[C@H](C)O1 (stereo partly drawn) [Example 81, 10-((3′-(pyrrol-1-yll)-2′,3′,6′-trideoxy-alphal-l-lyxo-hexylpyranyl)oxy)-7,8,9,10-tetrahydro-6,8,11-trihydroxy-13-oxo-14-(4-((3-(4-methylpiperazin-1-yl)propyl)amino)-4-oxo-butyrato)-1-methoxy-5,12-naphthalenedione acetate] | 225 nM | 72% | 56.4% | 67 nM |  |
| COc1cccc2c1C(=O)c1c(O)c3c(c(O)c1C2=O)CC(O)(C(=O)COC(=O)CCC(=O)O)CC3OC1CC(n2cccc2)C(O)C(C)O1 (stereo not shown) [Compound A, 3′-pyrrolyldoxorubicin-14-oxo-succinic acid monoester, reference compound] | 785 nM |  |  | 207 nM | 180 nM |
| COc1cccc2c1C(=O)c1c(O)c3c(c(O)c1C2=O)CC(O)(C(=O)COC(=O)CCC(=O)NCCOCCO)CC3OC1CC(n2cccc2)C(O)C(C)O1 (stereo not shown) [Example 62] |  | 83.7% | 63.6% |  | 110 nM |

— patent US9670242B2, “Tetracyclic anthraquinone derivatives” (Tianjin Hemay Bio-Tech Co., Ltd, priority 2012, dated 2017)
